Activity calls are given as the source filed them. The rule behind the calls is not given here.
What was measured:
Zika virus [1] = experiment: Antiviral activity against Zika virus 976 Uganda infected in human HepG2 cells assessed as protection against viral infection by measuring cell survival at 10 uM measured after 4 days by CellTiter-Glo luminescent cell viability assay relative to control; type: functional; settings: HepG2, 96 h, time 4 day
[2] = Cytotoxicity against human HepG2 cells assessed as cell viability at 10 uM measured after 4 days by CellTiter-Glo luminescent cell viability assay relative to control; type: cell-based; settings: time 4 day, read-out: Activity
[3] = Binding affinity to N-terminal thrombin cleavage fused His-tagged Zika virus ARD41644 NS2B Arg95Ala mutant (49 to 95 residues)/NS3 Arg29Gly mutant (1 to 170 residues) protease expressed in Escherichia coli BL21pLysS by MST method
[4] = Non- competitive inhibition of N-terminal thrombin cleavage fused His-tagged Zika virus ARD41644 NS2B Arg95Ala mutant (49 to 95 residues)/NS3 Arg29Gly mutant (1 to 170 residues) protease expressed in Escherichia coli BL21pLysS using varying levels Bz-nKRR-MCA as substrate by Lineweaver-Burk double reciprocal plot analysis
Zika virus [5] = experiment: Antiviral activity against Zika virus MR766 infected in human Huh-7 cells assessed as reduction in viral infection; type: functional, organism-based; settings: MR766, Huh-7
[6] = Inhibition of N-terminal thrombin cleavage fused His-tagged Zika virus ARD41644 NS2B Arg95Ala mutant (49 to 95 residues)/NS3 Arg29Gly mutant (1 to 170 residues) protease expressed in Escherichia coli BL21pLysS using Bz-nKRR-MCA peptide as substrate by FRET assay
Zika virus [7] = experiment: Antiviral activity against Zika virus 976 Uganda infected in human HepG2 cells assessed as inhibition of viral infection measured after 4 days by CellTiter-Glo luminescent cell viability assay; type: functional, organism-based; settings: HepG2, 96 h
[8] = Cytotoxicity against human HepG2 cells assessed as cell viability at 100 uM measured after 4 days by CellTiter-Glo luminescent cell viability assay relative to control; type: cell-based; settings: time 4 day, read-out: Activity
Zika virus [9] = experiment: Antiviral activity against Zika virus infected in 6 days old suckling ICR mouse assessed as improvement in body weight at 1 mg/kg, ip administered at day 1, 3 and 5 post-infection and monitored daily for 6 days post-infection; type: functional, organism-based
Zika virus [10] = experiment: Antiviral activity against Zika virus infected in 6 days old suckling ICR mouse assessed as improvement in clinical scores at 1 mg/kg, ip administered at day 1, 3 and 5 post-infection and monitored daily for 6 days post-infection; type: functional, organism-based
Zika virus [11] = experiment: Antiviral activity against Zika virus infected in 6 days old suckling ICR mouse assessed as reduction in monocyte infiltration in brain at 1 mg/kg, ip administered at day 1, 3 and 5 post-infection by immunohistochemistry analysis; type: functional, organism-based
Zika virus [12] = experiment: Antiviral activity against Zika virus infected in 6 days old suckling ICR mouse assessed as reduction in virus titer in brain at 1 mg/kg, ip administered at day 1, 3 and 5 post-infection; type: functional, organism-based
Zika virus [13] = experiment: Antiviral activity against Zika virus MR766 infected in human Huh-7 cells assessed as reduction in viral NS2B protein synthesis incubated for 3 days by Western blot analysis; type: functional, organism-based; settings: dose microM 1-20, time 3.0 day
Zika virus [14] = experiment: Antiviral activity against Zika virus infected in 6 days old suckling ICR mouse assessed as inhibition of viral replication in brain at 1 mg/kg, ip administered at day 1, 3 and 5 post-infection by immunohistochemical staining; type: functional, organism-based
Zika virus [15] = experiment: Antiviral activity against Zika virus infected in 6 days old suckling ICR mouse assessed as improvement in survival rate at 1 mg/kg, ip administered at day 1, 3 and 5 post-infection and monitored daily for 6 days post-infection; type: functional, organism-based
Zika virus [16] = experiment: Antiviral activity against Zika virus MR766 infected in human Huh-7 cells assessed as reduction in viral RNA synthesis incubated for 3 days by qRT-PCR analysis; type: functional, organism-based
Zika virus [17] = experiment: Antiviral activity against Zika virus infected in 6 days old suckling ICR mouse assessed as reduction in brain damage at 1 mg/kg, ip administered at day 1, 3 and 5 post-infection by hematoxylin and eosin staining based analysis; type: functional, organism-based
[18] = Inhibition of DENV2 NS2B-NS3 protease using Bz-nKRR-MCA as substrate by FRET assay; parameters: species or system dengue virus type 2
Huh-7 = experiment: Cytotoxicity against human Huh-7 cells; type: cell-based

SMILES | survival at 10 µM (Zika virus [1]) [%] | viability at 96 h, 10 µM [2] [%] | further results
COc1cc(C(=O)c2c(-c3ccccc3)[nH]c3ccc(Br)cc23)cc(OC)c1O | 23 | 100 | 
CCOC(=O)c1[nH]c2ccc(Br)cc2c1Cc1cc(OC)c(O)c(OC)c1 | 20 | 100 | 
CCOC(=O)c1[nH]c2ccccc2c1C(=O)c1cc(OC)c(O)c(OC)c1 | 0 | 100 | 
CCOC(=O)c1[nH]c2ccc(OC)cc2c1Cc1cc(OC)c(O)c(OC)c1 | 28 | 100 | 
CCOC(=O)c1[nH]c2ccc(Br)cc2c1C(=O)c1cc(OC)c(O)c(OC)c1 | 66 | 100 | Kd [3]: 300 µM; Ki [4]: 48 µM; EC50 (Zika virus [5]): 16.2 µM; IC50 [6]: 33 µM; IC50 (Zika virus [7]): 15.8 µM
CCOC(=O)c1[nH]c2ccc(OC)cc2c1C(=O)c1cc(OC)c(O)c(OC)c1 | 47 | 100 | 
COC(=O)c1[nH]c2ccc(Cl)cc2c1Cc1cc(OC)cc(OC)c1 | 16 | 100 | IC50 [6]: 770 µM
COC(=O)c1[nH]c2ccc(Cl)cc2c1Cc1cc(OC)c(O)c(OC)c1 | 23 | 100 | 
COC(=O)c1[nH]c2ccc(Br)cc2c1C(=O)c1cc(OC)c(O)c(OC)c1 | 22 | 100 | 
CCOC(=O)c1[nH]c2ccc(O)cc2c1C(=O)c1cc(OC)c(O)c(OC)c1 | 0 | 94 | 
COC(=O)c1[nH]c2ccc(OC)cc2c1C(=O)c1cc(OC)c(O)c(OC)c1 | 49 | 100 | 
NC(=O)c1ncn([C@@H]2O[C@H](CO)[C@@H](O)[C@H]2O)n1 [RIBAVIRIN] |  |  | viability at 96 h, 100 µM [8]: 100%
CCOC(=O)c1[nH]c2ccccc2c1Cc1cc(OC)c(O)c(OC)c1 | 0 | 100 | 
COC(=O)c1[nH]c2ccc(Cl)cc2c1C(=O)c1cc(OC)c(O)c(OC)c1 | 47 | 100 | Activity (Zika virus [9]): Active; Activity (Zika virus [10]): Active; Activity (Zika virus [11]): Active; Activity (Zika virus [12]): Active; Activity (Zika virus [13]): Dose-dependent effect; Activity (Zika virus [14]): Active; Kd [3]: > 1000 µM; Activity (Zika virus [15]): Active; Ki [4]: 280 µM; IC50 (Zika virus [16]; MR766, Huh-7, 72 h): 13.9 µM; inhibition (Zika virus [16]; time 3.0 day): Dose-dependent effect; Activity (Zika virus [17]): Active; EC50 (Zika virus [5]): 13.9 µM; IC50 [18]: 112 µM; Activity (Huh-7): Non-Toxic; IC50 [6]: 158 µM; IC50 (Zika virus [7]): 13.7 µM
COC(=O)c1[nH]c2ccc(Br)cc2c1Cc1cc(OC)c(O)c(OC)c1 | 2 | 100 | 
